Results taken from US12365687B2 (Hoffmann-La Roche Inc., priority 2021, dated 2025).

Columns and labels:
[1] = target: human GABAA α1β3γ2 receptor (Homo sapiens (Human), UniProt P14867+P18507); assay: Radioligand binding assay for γ2-containing GABAA subtypes, [3H]Flumazenil competition (α1β3γ2); conditions: for γ2/γ1 Selectivity Ratio: Ki α1β3γ2 (nM)/Ki α2β2γ1 (nM); for LogSel: Log[Ki α1β3γ2 (nM)/Ki α2β2γ1 (nM)]
[2] = target: α2β2γ1 GABAA receptor subtype (Homo sapiens (Human), UniProt P47869+Q8N1C3); assay: Two-electrode voltage clamp electrophysiology in Xenopus oocytes expressing GABAA receptors (modulation of GABA EC20 current); type: cell-based; conditions: for Efficacy (GABA)%: % modulation of GABA EC20 = 100*(Fold increase-1), α2β2γ1 oocytes, compound at approx. 30-fold Ki; for Fold increase h-GABA-A α2β2γ1 oocyte @ 30-fold Ki: Xenopus oocytes expressing α2β2γ1, compound at approx. 30-fold its Ki α2β2γ1, GABA EC20 current
Summary of the method: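 Each concentration was tested on ≥3 oocytes held at −80 mV at room temperature, recorded 3-5 days post-injection. A control and a test response to EC20 GABA (1.5 min each) were superimposed and their point-by-point ratio taken. Peak ratio reported as % modulation of GABA EC20 = 100×(fold increase−1).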

[3] = target: human GABAA α5β2γ1 receptor (Homo sapiens (Human), UniProt P31644+Q8N1C3); assay: Radioligand binding assay for γ1-containing GABAA subtypes, [3H]RO7239181 competition (α5β2γ1)
[4] = target: human GABAA α2β2γ1 receptor (Homo sapiens (Human), UniProt P47869+Q8N1C3); assay: Radioligand binding assay for γ1-containing GABAA subtypes, [3H]RO7239181 competition (α2β2γ1)
[5] = Ki h-GABAA α2β2γ1, [3H]RO7239181 competition binding, human GABAA α2β2γ1
[6] = Ki h-GABAA α2β2γ1, displacement of [3H]RO7239181, membranes of HEK293F cells expressing human receptors, means of two determinations

| SMILES | Ki [1] [nM] | γ2/γ1 Selectivity Ratio [1] | LogSel [1] | Efficacy (GABA)% [2] [%] | Fold increase h-GABA-A α2β2γ1 oocyte @ 30-fold Ki [2] | Ki [3] [nM] | Ki [4, 5] [nM] | Ki [4, 6] [nM] |
| --- | --- | --- | --- | --- | --- | --- | --- | --- |
| C[C@@H]1N=C(c2c(F)cccc2F)c2c(ccc(Cl)c2Cl)-n2nc(C(=O)N3CC[C@H](O)C3)nc21 [Example 43, [(4S)-7,8-dichloro-6-(2,6-difluorophenyl)-4-methyl-4H-[1,2,4]triazolo[1,5-a][1,4]benzodiazepin-2-yl]-[(3S)-3-hydroxypyrrolidin-1-yl]methanone] | 837 | 176.3 | 2.25 | 71 | 1.71 | 1.26 | 4.7 | 4.75 |
| C[C@@H]1N=C(c2c(F)cccc2F)c2c(ccc(Cl)c2Cl)-n2cc(C(=O)N3CC(O)C3)nc21 [Example 68, (3-hydroxyazetidin-1-yl)-[(4S)-7,8-dichloro-6-(2,6-difluorophenyl)-4-methyl-4H-imidazo[1,2-a][1,4]benzodiazepin-2-yl]methanone] | 318 | 44.0 | 1.64 | 107 | 2.07 | 1.48 | 7.2 | 7.2 |
| C[C@@H]1N=C(c2c(F)cccc2F)c2c(ccc(C(F)(F)F)c2Cl)-n2nc(C(=O)N3CC(C(F)F)C3)nc21 [Example 122, [(4S)-7-chloro-6-(2,6-difluorophenyl)-4-methyl-8-(trifluoromethyl)-4H-[1,2,4]triazolo[1,5-a][1,4]benzodiazepin-2-yl]-[3-(difluoromethyl)azetidin-1-yl]methanone] | 3050 | 287.8 | 2.46 | 91 | 1.91 | 3.82 | 10.6 | 10.6 |
| O=C(c1nc2n(n1)-c1ccc(Cl)c(Cl)c1C(c1c(F)cccc1F)=NC2)N1CC(O)C1 [Example 24, [7,8-dichloro-6-(2,6-difluorophenyl)-4H-[1,2,4]triazolo[1,5-a][1,4]benzodiazepin-2-yl]-(3-hydroxyazetidin-1-yl)methanone] | 273 | 86.7 | 1.94 | 88 | 1.88 | 0.45 | 3.1 | 3.14 |
| Cc1c(C(=O)NC[C@@H](C)O)nc2n1-c1ccc(C(F)(F)F)c(Cl)c1C(c1ncccc1F)=N[C@H]2C [Example 162, (4S)-7-chloro-6-(3-fluoro-2-pyridyl)-1,4-dimethyl-N-[(2R)-2-hydroxypropyl]-8-(trifluoromethyl)-4H-imidazo[1,2-a][1,4]benzodiazepine-2-carboxamide] | 11700 | 210.1 | 2.32 | 148 | 2.48 | 13.6 | 54.4 | 55.7 |
| COC1CN(C(=O)c2cn3c(n2)[C@H](C)N=C(c2ncccc2F)c2c-3ccc(C(F)(F)F)c2Cl)C1 [Example 145, [(4S)-7-chloro-6-(3-fluoro-2-pyridyl)-4-methyl-8-(trifluoromethyl)-4H-imidazo[1,2-a][1,4]benzodiazepin-2-yl]-(3-methoxyazetidin-1-yl)methanone] | 13200 | 141.7 | 2.15 | 168 | 2.68 | 18.4 | 93.1 | 93.1 |
| C[C@@H]1N=C(c2ncccc2F)c2c(ccc(C(F)(F)F)c2Cl)-n2nc(C(=O)N3CC(OC(F)F)C3)nc21 [Example 140, [(4S)-7-chloro-6-(3-fluor-2-pyridyl)-4-methyl-8-(trifluoromethyl)-4H-[1,2,4]triazolo[1,5-a][1,4]benzodiazepin-2-yl]-[3-(difluoromethoxy)azetidin-1-yl]methanone] | > 30000 | 1041.0 | 3.02 | 121 | 2.21 | 6.63 | 28.8 | 28.8 |
